Residues, ends and D or L forms follow the SMILES beside them. *: point of attachment. Cbz = O=C(OCc1ccccc1)*
Experiments:
[1] = target: T1, PPARγ (Homo sapiens, UniProt P37231); assay: Mammalian two-hybrid assay (VP-PPARγ / GAL4-coactivator) in SW480 cells; format: cell-based
T1 construct: containing the DEF region of the PPARγ (amino acids 183-505) fused to the pVP16 expression vector; expressed in transfected cells; host or cells: SW480 colon cancer cells; plasmid provided by Dr. Shigeaki Kato (University of Tokyo)
T1 sequence (P37231 183-505): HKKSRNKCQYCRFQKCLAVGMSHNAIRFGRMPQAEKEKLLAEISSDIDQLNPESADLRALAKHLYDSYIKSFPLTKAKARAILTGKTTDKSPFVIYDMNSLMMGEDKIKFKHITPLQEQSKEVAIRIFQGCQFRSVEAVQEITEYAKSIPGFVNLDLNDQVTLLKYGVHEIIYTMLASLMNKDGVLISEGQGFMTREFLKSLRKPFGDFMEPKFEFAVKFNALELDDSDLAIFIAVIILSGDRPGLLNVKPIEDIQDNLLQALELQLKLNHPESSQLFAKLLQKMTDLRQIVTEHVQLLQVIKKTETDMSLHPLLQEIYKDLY
Method: The GAL4 reporter construct containing 5×GAL4 response elements (p GAL4) was provided by Dr. Marty Mayo (University of […], Chapel Hill, N.C.). The GAL4-coactivator fusion plasmids pM-SRC1, pMSRC2, pMSRC3, pM-DRIP205, pM-CARM-1 and PPARγ-VP16 fusion plasmid (Vp-PPARγ) containing the DEF region of the PPARγ (amino acids 183-505) fused to the pVP16 expression vector were provided by Dr. Shigeaki Kato (University of Tokyo, Tokyo, Japan). SW480 colon cancer cells were plated in 12-well tissue culture plates at 1×10^5 cells per well in DMEM/Ham's F-12 medium supplemented with 2.5% charcoal stripped FBS.
After allowing them to adhere overnight, transient transfections were carried out with GAL4-Luc (0.4 μg), β-GAL (0.04 μg), VP-PPARγ (0.04 μg), pM-SRC1 (0.04 μg), pM-PGC-1 (0.04 μg), pM-SMRT (0.04 μg), pM-TRAP220 (0.04 μg), pM-DRIP205 (0.04 μg), and pMCARM1 (0.04 μg) using LipofectAMINE2000 (Invitrogen) following the manufacturer's guidelines. After 6 hr of transfection, cells were treated in triplicate either with vehicle (DMSO) or the indicated compound suspended in complete medium for 20-24 hr. One hundred μL per well of 1× Reporter Lysis Buffer (Promega) was used to lyse the cells and 30 μl of this lysate was used to perform the luciferase and β-GAL assays using Lumicount (Perkin-Elmer Life and Analytical Sciences, Boston, Mass.). The luciferase activities obtained were normalized to the β-gal activity.

[2] = test system: HT-29 cells; assay: KLF4 mRNA (RT-PCR) in HT-29 cells; format: cell-based, human
Method: SW480 and HT29 colon cancer cells were treated either with vehicle (DMSO) or indicated compounds and after 24 hr total RNA was extracted using RNeasy Mini kit (Qiagen, Inc., Valencia, Calif.). RNA concentration was measured by UV 260:280 nm absorption ratio and 2 μg RNA was used to synthesize cDNA using Reverse Transcription System (Promega). PCR conditions were as follows: initial denaturation at 94° C. (1 min) followed by 28 cycles of denaturation for 30 s at 94° C., annealing for 60 s at 55° C. and extension at 72° C. for 60 s and a final extension step at 72° C. for 5 min. The mRNA levels were normalized using GAPDH as an internal housekeeping gene. Primers obtained from IDT and used for amplification are as follows: KLF4 (sense 5′-CTATGGCAGGGAGTCCGCTCC-3′ (SEQ ID NO: 1); antisense 5′-ATGACCGACGGGCTGCCGTAC-3′ (SEQ ID NO: 2)) and GAPDH (sense 5′-ACGGATTTGGTCGTATTGGGCG-3′ (SEQ ID NO: 3); antisense 5′-CTCCTGGAAGATGGTGATGG-3′ (SEQ ID NO: 4). PCR products were electrophoresed on 1% agarose gels containing ethidium bromide and visualized under UV transillumination.

[3] = test system: LNCaP cells; assay: Western blot analysis of protein expression in LNCaP cells; format: cell-based, Human; conditions: 10 μM, compound alone
Method: Human carcinoma cell lines LNCaP (prostate) and SK-MEL2 (melanoma) were obtained from American Type Culture Collection (Manassas, Va.). Cell lines were maintained in RPMI 1640 (Sigma) supplemented with 0.22% sodium bicarbonate, 0.011% sodium pyruvate, 0.45% glucose, 0.24% HEPES, 10% FBS, and 10 mL/L of 100× Antibiotic Antimycotic solution (Sigma). Cells were maintained at 37° C. in the presence of 5% CO2.
An equal amount of cell lysate (60 μg/well) was separated by 7.5% to 12% SDS-PAGE, which was followed by immunoblotting onto polyvinylidene difluoride (Bio-Rad, Hercules, Calif.). After blocking in TBST-Blotto (10 mmol/L Tris-HCl, 150 mmol/L NaCl (pH 8.0), 0.05% Triton X-100, 5% nonfat dry milk) for 30 min, the membranes were incubated with primary antibodies overnight at 4° C. and then with horseradish peroxidase-conjugated secondary antibody for 2 hr at room temperature. Proteins were visualized using the chemiluminescence substrate (Perkin-Elmer Life Sciences) for 1 min and exposed to Kodak X-OMAT AR autoradiography film (Eastman Kodak, Rochester, N.Y.).

[4] = test system: HT-29 cells; conditions: HT-29, earlier reports; cited from earlier work
[5] = test system: SW480 cells; conditions: SW480, reference [9]; cited from earlier work
[6] = test system: SW480 cells; conditions: SW480, earlier reports; cited from earlier work

Row | Structure (SMILES) | caveolin-1 induction [4] | caveolin-1 induction [6] | also measured
1 | COC(=O)[C@@]1(C)CCC2(C)CC[C@]3(C)C(=CC(=O)[C@@H]4C5(C)C=C(C#N)C(=O)C(C)(C)[C@@H]5CCC43C)C2C1 (stereo partly drawn) [β-CDODA-Me, Methyl 2-cyano-3,12-dioxo-18β-olean-1,12-diene-30-oic Acid, reference compound] |  |  | luciferase activity, VP-PPARγ with GAL4 PGC-1 and GAL4 SRC-1 [1]: significantly induced luciferase activity; effect of T007 on induction of KLF4 mRNA ([2]; HT-29, cotreatment with T007): decreased significantly; part of induced KLF4 mRNA response inhibited by T007 ([2]; cotreatment with T007): 60-80%
2 | CC(C)C[C@@H](C=O)NC(=O)[C@H](CC(C)C)NC(=O)[C@H](CC(C)C)NC(=O)OCc1ccccc1 [MG132] (Cbz-Leu-Leu-Leu-aldehyde) |  |  | PARP cleavage [3]: induced caspase-dependent cleavage of PARP
3 | COC(=O)[C@@]1(C)CC[C@]2(C)CC[C@]3(C)C(=CC(=O)[C@@H]4[C@@]5(C)C=C(C#N)C(=O)C(C)(C)[C@@H]5CC[C@]43C)[C@H]2C1 [α-CDODA-Me] | inducing caveolin-1 | inducing caveolin-1 | KLF4 mRNA [5]: enhanced KLF4 mRNA
4 | CC1(C)C(=O)C(C#N)=C[C@]2(C)[C@H]3C(=O)C=C4[C@@H]5C[C@@](C)(C(=O)O)CC[C@]5(C)CC[C@@]4(C)[C@]3(C)CC[C@@H]12 [β-CDODA] | induced caveolin-1 |  | 
5 | CC1(C)CC[C@]2(C(=O)O)CC[C@]3(C)[C@H](C(=O)C=C4[C@@]5(C)C=C(C#N)C(=O)C(C)(C)[C@@H]5CC[C@]43C)[C@@H]2C1 [CDDO] | inducing caveolin-1 | inducing caveolin-1 | 
